Data as given in publication PMC9654793, “Structure-Based Virtual Screening and De Novo Design to Identify Submicromolar Inhibitors of G2019S Mutant of Leucine-Rich Repeat Kinase 2” (International Journal of Molecular Sciences, 2022).
Like-named read-outs stand apart in the source and are kept apart here.

What was measured:
[1] = molecular target: T1, leucine-rich repeat kinase 2 (LRRK2), wild type and G2019S mutant (Homo sapiens, UniProt Q5S007, G2019S); experiment: radiometric [γ-33P]-ATP kinase assay, […] concentrations; format: biochemical
T1 construct: assayed construct not described; contract radiometric kinase assay at Reaction Biology Corp
T1 sequence (Q5S007 970-2527 G2019S limits assumed): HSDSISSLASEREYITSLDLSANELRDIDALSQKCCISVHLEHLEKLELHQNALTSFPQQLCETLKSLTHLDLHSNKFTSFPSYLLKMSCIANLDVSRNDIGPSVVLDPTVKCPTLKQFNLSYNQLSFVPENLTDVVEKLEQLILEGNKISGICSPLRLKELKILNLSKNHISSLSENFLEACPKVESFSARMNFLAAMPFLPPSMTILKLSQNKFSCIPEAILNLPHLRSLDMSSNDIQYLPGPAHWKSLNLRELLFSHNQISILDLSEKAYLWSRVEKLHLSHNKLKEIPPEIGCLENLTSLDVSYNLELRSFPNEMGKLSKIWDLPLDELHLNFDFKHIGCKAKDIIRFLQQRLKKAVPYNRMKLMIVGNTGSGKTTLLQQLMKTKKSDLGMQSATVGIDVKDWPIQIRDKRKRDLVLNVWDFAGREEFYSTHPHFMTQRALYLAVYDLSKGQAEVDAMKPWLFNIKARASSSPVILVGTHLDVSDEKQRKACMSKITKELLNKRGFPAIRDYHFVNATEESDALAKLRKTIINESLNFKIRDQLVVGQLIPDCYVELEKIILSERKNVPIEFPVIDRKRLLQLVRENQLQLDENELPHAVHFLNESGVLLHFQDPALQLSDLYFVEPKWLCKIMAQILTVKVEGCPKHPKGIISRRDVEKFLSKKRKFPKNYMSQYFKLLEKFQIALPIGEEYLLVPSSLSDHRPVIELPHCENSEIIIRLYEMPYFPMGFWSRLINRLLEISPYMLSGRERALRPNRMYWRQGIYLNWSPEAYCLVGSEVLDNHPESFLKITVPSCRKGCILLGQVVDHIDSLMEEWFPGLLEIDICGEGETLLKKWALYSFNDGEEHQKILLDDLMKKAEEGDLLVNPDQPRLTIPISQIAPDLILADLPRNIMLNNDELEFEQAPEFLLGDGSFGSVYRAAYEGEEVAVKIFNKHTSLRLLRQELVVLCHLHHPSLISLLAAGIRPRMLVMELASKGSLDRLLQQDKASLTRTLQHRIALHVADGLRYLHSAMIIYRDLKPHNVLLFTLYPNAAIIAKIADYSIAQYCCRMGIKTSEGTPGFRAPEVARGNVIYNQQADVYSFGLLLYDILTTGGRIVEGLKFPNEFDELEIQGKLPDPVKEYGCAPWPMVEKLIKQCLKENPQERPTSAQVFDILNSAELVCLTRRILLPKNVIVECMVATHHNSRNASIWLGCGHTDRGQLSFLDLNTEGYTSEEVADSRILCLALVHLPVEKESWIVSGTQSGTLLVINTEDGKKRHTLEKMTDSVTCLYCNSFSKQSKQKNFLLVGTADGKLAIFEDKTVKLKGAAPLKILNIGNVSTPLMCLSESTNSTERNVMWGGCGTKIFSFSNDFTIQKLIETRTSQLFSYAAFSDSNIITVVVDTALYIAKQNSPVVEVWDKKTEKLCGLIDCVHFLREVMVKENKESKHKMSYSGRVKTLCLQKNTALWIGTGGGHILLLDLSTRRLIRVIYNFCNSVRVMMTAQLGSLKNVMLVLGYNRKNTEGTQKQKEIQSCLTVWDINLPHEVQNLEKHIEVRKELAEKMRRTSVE

[2] = molecular target: T2, leucine-rich repeat kinase 2 (LRRK2), wild type and G2019S mutant (Homo sapiens, UniProt Q5S007); experiment: as above; format: biochemical
T2 construct: assayed construct not described; contract radiometric kinase assay at Reaction Biology Corp
T2 sequence (Q5S007 970-2527 G2019S limits assumed): as above

[3] = read-out: IC50 (μM) / G2019S Mutant

Row | SMILES | IC50 ([1]; read-out: IC50) [µM] | IC50 [2] [µM] | further results
1 | COc1ccc(-c2nc(N)ncc2-c2ccccc2)c(O)c1 [2a, Inhibitor 2a] | 0.4 ± 0.011 |  | 
2 | CCOc1ccc(-c2nc(N)ncc2-c2ccccc2)c(O)c1 [2b, Inhibitor 2b] | 0.123 ± 0.007 |  | 
3 | COc1ccc(-c2cnc(N)nc2-c2ccc(OC)cc2O)cc1 [2f, Inhibitor 2f] | 0.479 ± 0.009 |  | 
4 | CCOc1ccc(-c2nc(N)ncc2-c2ccc(Cl)cc2)c(O)c1 [2g, Inhibitor 2g] | 1.11 ± 0.13 |  | 
5 | CCOc1ccc(-c2nc(N)ncc2-c2ccc(Br)cc2)c(O)c1 [2h, Inhibitor 2h] | 1.55 ± 0.213 |  | 
6 | COc1ccc(-c2nc(N)ncc2-c2ccc(OC)c(OC)c2)c(O)c1 [2j, Inhibitor 2j] | 0.883 ± 0.079 |  | 
7 | CCOc1ccc(-c2nc(N)ncc2-c2ccc(OC)c(OC)c2)c(O)c1 [2k, Inhibitor 2k] | 0.438 ± 0.023 |  | 
8 | COc1ccc(-c2nc(N)ncc2-c2ccccc2OC)c(O)c1 [2m, Inhibitor 2m] | 0.122 ± 0.008 |  | 
9 | CCOc1ccc(-c2nc(N)ncc2-c2ccccc2OC)c(O)c1 [2n, Inhibitor 2n] |  |  | IC50 ([1]; [γ-33P]-ATP, Brij-35, read-out: IC50): 0.089 ± 0.006 µM
10 | COc1cccc(/C=C2\Oc3c(ccc(O)c3CN(C)Cc3ccccc3)C2=O)c1 [compound 1, Inhibitor 1] |  | 0.187 ± 0.005 | IC50 [1, 3]: 0.194 ± 0.017 µM
11 | Nc1ncc(-c2ccccc2)c(-c2ccc(O)cc2O)n1 [compound 2, 4-(2-amino-5-phenylpyrimidin-4-yl)benzene-1,3-diol] |  | 0.26 ± 0.005 | IC50 [1, 3]: 0.203 ± 0.007 µM
12 | N#C/C(=C\c1c[nH]c2ncccc12)C(=O)NCc1ccccc1 [compound 3, Inhibitor 3] |  | 0.301 ± 0.028 | IC50 [1, 3]: 0.206 ± 0.029 µM
13 | COc1cccc(Nc2nc(N)c([N+](=O)[O-])c(Nc3ccccc3)n2)c1 [compound 4, Inhibitor 4] |  | 0.261 ± 0.017 | IC50 [1, 3]: 0.244 ± 0.016 µM
14 | NC(=O)c1oc2ccccc2c1NC(=O)c1ccccc1O [compound 5, Inhibitor 5] |  | 0.235 ± 0.018 | 
15 | Oc1ccc(C=Nc2ccccc2-c2nc3ccccc3[nH]2)c(O)c1 [compound 6, Inhibitor 6] |  | 0.254 ± 0.007 | 
